# Laboratory results: US20160339079A1, “TRANSMUCOSAL AND TRANSEPITHELIAL DRUG DELIVERY SYSTEM” (UNIVERSITY OF BIRMINGHAM, priority 2014, published 2016)
# How the values were obtained:
# [1] = test system: primary rat meningeal fibroblast cells; format: cell-based, Sprague-Dawley Rats
# Procedure: The nanosome toxicity was also tested against primary rat meningeal fibroblast cells. The cells were isolated from Sprague-Dawley Rats. The leptomeninges was removed from the rat and the meningeal fibroblast cells were isolated from the tissue. The cells were then plated out and treated with nanosome. The cell media was supplemented with resazurin for 2 hours and then harvested and the media fluorescence read at 570 nm. The cell samples were then frozen in deionised water for DNA analysis (FIG. 7). […] This supports the work carried out in the retinal cultures that the nanosomes are not toxic.
# [2] = test system: gram positive and gram negative bacteria; assay: Broad spectrum antibacterial activity; format: cell-based; conditions: both gram positive and gram negative bacteria
# Procedure: It is effective at killing both gram positive and gram negative bacteria and was particularly selective against pseudomonas aeruginosa with a MIC of 0.03 mg/mL.
# Retinal Ganglion Cells = format: cell-based, rats
# Procedure: The cells were studied against several cell lines for any cytotoxic effects they might induce. Dissociated retinal cultures were prepared from rats and plated onto culture plates. The cells were treated with nanosome peptide and then incubated for 72 hours and fixed with formaldehyde. The cells were stained with β3 tubulin and imaged on the fluorescence microscope. The positive cells were counted and comparisons were taken.
structure (smiles),measurement,setting,value
"N=C(N)NCCC[C@H](NC(=O)[C@H](CCCNC(=N)N)NC(=O)[C@H](CCCNC(=N)N)NC(=O)[C@H](CCCNC(=N)N)NC(=O)[C@H](CCCNC(=N)N)NC(=O)[C@H](CCCNC(=N)N)NC(=O)CCCCCNC(=S)Nc1ccc2c(c1)C(=O)OC21c2ccc(O)cc2Oc2cc(O)ccc21)C(=O)O [nanosome, RRRRRR-Linker-FITC]",effect on the number of cells in the sample (DNA assay),[1],did not have a significant effect
same,killing of bacteria,[2],highly effective broad spectrum antibacterial agent
same,"β3 tubulin positive cells, treated wells versus control",Retinal Ganglion Cells,no significant difference
